Patent publication US4188378A, “Anticancer and antiviral activity of 9-β-D-arabinofuranosyl-2-fluoroadenine” (The United States of America as represented by the …, priority 1978, dated 1980)
“Also recorded” adds a separate entry of the source. Where two headings read alike, the source gives them in different places.

Experiments:
[1] = system: L1210 cells; test: Macromolecular synthesis in L1210 cells in culture (radiolabel incorporation); assay type: cell-based; conditions: for activity at 1 µg/mL / activity at 3 µg/mL / activity at 10 µg/mL / inhibition at 10 µg/mL: Mus musculus, L1210; for activity at 1 µg/mL: 1.0 μg/ml; for activity at 3 µg/mL: 3.0 μg/ml; for activity at 10 µg/mL: 10.0 μg/ml
Protocol: ^a Inhibitor was added to L1210 cells growing in culture; radioactive
substrate was added 30 min. later.
hrs after addition of radioactive substrate to culture medium.
^b Incorporation of [C^3 H3 thymidine or [5^3 Huridine
^c Incorporation of [5^3 Huridine into RNA.
^d Incorporation of [4,5^3 HL-leucine into protein.

[2] = system: Leukemia L1210; test: Therapeutic activity against leukemia L1210 implanted i.p. in mice; assay type: in vivo
Text: (§1) Inhibition of DNA polymerase is considered to be responsible for the biologic activity of AraA. The levels of F-AraATP attainable in leukemia L1210 cells in mice from the administration of 2-F-AraA are much higher than the level of AraATP atainable in these cells after administration of AraA. As a result of the maintenance of these levels of the inhibitor, F-AraATP, in them, the leukemia cells are effectively destroyed in animals. […] 2-F-AraA was also active against leukemia L1210 when administered by the oral route.
^a 10^5 L1210 ascites cells implanted i.p. on day 0.
^b Treatments reported were selected from a range of dose levels from
lethally toxic to apparently nontoxic.
more than 16% (1/6 treated mice) dying without gross evidence of
progressive leukemia (splenomegaly), except those treated orally, in whic
^c i.p. = intraperitoneal; oral = drug administered directly into
^d % ILS = % increase in life span, compared to untreated control;
excluding 60day survivors.
^e Based on median day of death in dying animals only. Figures in
parentheses based on % survivors.
2-F-AraA was given i.p. or orally on the basis of average mouse body weight. Therapeutic activity based on observed increase in median life span of treated animals over untreated controls and on estimates of the number of viable L1210 cells present at the end of treatment is summarized in Table 2.

[3] = system: P388 leukemia cells; test: F-AraATP levels in P388 leukemia cells of treated mice (HPLC); assay type: in vivo; conditions: 80 mg/kg
Protocol: (§2) Relative to activity against leukemia and antiviral activity, the following summation was found: Levels of F-AraATP in acid-soluble extracts prepared from L1210 and P388 leukemia cells in mice treated with 2-F-AraA (80 mg/kg) were determined by HPLC. […] Inhibition of DNA synthesis by 2-F-AraA (80 mg/kg) in L1210 and P388 leukemia cells in vivo was pronounced for 7 hours after treatment. […] 2-F-AraA was effective against P388 leukemia; % increase in median life span of mice treated with 80 and 52 mg/kg (q3hrsx8; days 1,5,9 after implant of 10^6 cells) was 170% and 150%.

[4] = system: Herpes Simplex Virus Type 1; test: In vitro antiviral activity, Virus Rating; assay type: cell-based
[5] = system: Human Cytomegalovirus; test: In vitro antiviral activity, Virus Rating; assay type: cell-based; conditions: average VR adjusted for number of Microtiter wells; VR ≤0.5 no significant activity
Text: (§3) *Virus Rating (VR): A weighted measurement of antiviral activity which
(§4) takes into account the degree of virusspecific cytopathogenic effect
(§5) (cpe)inhibition, toxicity, and virus concentration, as determined by a
(§6) modification of the methods of Ehrlich et al. (Ann. N.Y. Acad. Sci. 140:7
(§7) 1965). In our experience, a VR≥1.0 indicates definite antiviral
(§8) activity; a VR of 0.5-0.9 indicates moderate antiviral activity; and a VR
(§9) ≤0.5 indicates no significant antiviral activity.
(§10) ^+ Average VR adjusted for number of Microtiter wells employed.

[6] = system: Parainfluenza Virus Type 3; test: In vitro antiviral activity, Virus Rating; assay type: cell-based; conditions: average VR adjusted for number of Microtiter wells; VR ≤0.5 no significant activity
Text: as §3, §4, §5, §6, §7, §8, §9, §10

[7] = system: Rhinovirus Type 1A; test: In vitro antiviral activity, Virus Rating; assay type: cell-based; conditions: average VR adjusted for number of Microtiter wells; VR ≤0.5 no significant activity
Text: as §3, §4, §5, §6, §7, §8, §9, §10

[8] = system: Vaccinia Virus; assay type: cell-based
[9] = system: adenosine deaminase; test: Deamination by adenosine deaminase in vitro and in vivo; assay type: in vitro ADME
Text: as §1
It has been noted that the antitumor activity of the parent compound, 9-β-D-arabinofuranosyladenine (AraA), is enhanced by inhibition of adenosine deaminase and inhibition of DNA synthesis in tumor cells by AraA also is enhanced by concurrent inhibition of adenosine deaminase. […] This observation that 2-fluoroadenosine is not such a substrate for adenosine deaminase led to the synthesis of 9-β-D-arabinofuranosyl-2-fluoroadenine (2-F-AraA). […] The intracellular concentration of 2-F-AraATP in L1210 cells was 45, 156 and 220 nanomoles per 10^9 cells three hours after intraperitoneal treatment with 80, 150 and 400 mg/kg of 2-F-AraA.

[10] = system: P388 leukemia cells; test: DNA synthesis in P388 leukemia cells in vivo; parameters: species or system mice; conditions: 80 mg/kg, for 7 hours after treatment
Protocol: as §2

[11] = system: L1210 cells; test: DNA synthesis in L1210 cells in vivo; parameters: species or system mice; conditions: 80 mg/kg, for 7 hours after treatment
Protocol: Protein synthesis was less affected and RNA synthesis was not inhibited under the same experimental conditions.
as §2

[12] = system: P388 leukemia; test: Therapeutic activity against P388 leukemia in mice; assay type: in vivo; conditions: for % increase in median life span: days 1,5,9 after implant of 10^6 cells
Protocol: as §2

[13] = read-out: DNA synthesis, TdR-3H incorporation, Treated as % of Control
[14] = read-out: DNA synthesis, UR-3H incorporation, Treated as % of Control
[15] = read-out: Protein synthesis, Leu-3H incorporation, Treated as % of Control
[16] = read-out: RNA synthesis, UR-3H incorporation, Treated as % of Control
[17] = same experimental conditions as Table 1
[18] = Expt. 1, 100 mg/kg/dose q3h × 8, days 1,5,9, i.p.
[19] = Expt. 2, 100 mg/kg/dose q6h × 4, days 1,5,9, i.p.
[20] = Expt. 2, 150 mg/kg/dose q3h × 8, days 1,5,9, oral
[21] = Expt. 2, 400 mg/kg/dose q12h × 2, days 1,5,9, i.p.
[22] = second line of the same regimen: 100 mg/kg/dose q3h × 8, days 1,5,9, i.p.
[23] = average VR adjusted for number of Microtiter wells, VR≥1.0 definite activity

Nc1nc(F)nc2c1ncn2[C@@H]1O[C@H](CO)[C@@H](O)[C@@H]1O [2-F-AraA, 9-β-D-arabinofuranosyl-2-fluoroadenine]
DNA synthesis in L1210 cells in culture [1]: inhibited DNA synthesis
inhibition of RNA synthesis ([1]; 10 μg/ml): generally not inhibited
activity at 1 µg/mL [1, 13]: 102%
activity at 1 µg/mL [1, 14]: 84%
activity at 1 µg/mL [1, 15]: 119%
activity at 1 µg/mL [1, 16]: 135%
activity at 3 µg/mL [1, 13]: 49%
activity at 3 µg/mL [1, 14]: 36%
activity at 3 µg/mL [1, 15]: 86%
activity at 3 µg/mL [1, 16]: 163%
activity at 10 µg/mL [1, 13]: 18%
activity at 10 µg/mL [1, 14]: 11%
activity at 10 µg/mL [1, 15]: 66%
activity at 10 µg/mL [1, 16]: 137%
inhibition at 10 µg/mL ([1]; 10 μg/ml, read-out: inhibition of DNA synthesis): 90%
inhibition at 10 µg/mL ([1]; 10 μg/ml, read-out: inhibition of protein synthesis): 30%
Protein synthesis in L1210 cells in culture [1, 17]: less affected
RNA synthesis in L1210 cells in culture [1, 17]: not inhibited
increase in life span of animals dying of leukemia ([2]; 100 mg/kg i.p. once every three hours on days 1, 5, 9, 10^5 cells, 4 of 6 animals): 123-155%
animals deemed recovered from the disease ([2]; 100 mg/kg i.p. once every three hours on days 1, 5, 9, of 6 animals): two
therapeutic result compared with the 100 mg/kg q3h regimen ([2]; 400 mg/kg twice a day on days 1, 5, 9): Comparable results
therapeutic activity against L1210 leukemia ([2]; 2-F-AraA alone, BDFl mice, 10^5 cells i.p.): reproducible therapeutic activity; also recorded: therapeutically effective
60-Day Survivors [2, 18]: 2/6
Estimated No. L1210 Cells Surviving Therapy (based on median day of death) [2, 18]: 4 × 10^4
Estimated No. L1210 Cells Surviving Therapy (in parentheses, based on % survivors) [2, 18]: 1.1
Median % ILS [2, 18]: 123%
Median Day of Death (Dying Mice Only), Treated ([2]; Expt. 1, 100 mg/kg/dose q3h × 8, days 1,5,9, i.p., control 8.5): 19
60-Day Survivors [2, 19]: 0/6
Estimated No. L1210 Cells Surviving Therapy (based on median day of death) [2, 19]: 3 × 10^6
Median % ILS [2, 19]: 83%
Median Day of Death (Dying Mice Only), Treated ([2]; Expt. 2, 100 mg/kg/dose q6h × 4, days 1,5,9, i.p., control 9): 16.5
Estimated No. L1210 Cells Surviving Therapy (based on median day of death) [2, 20]: 2 × 10^7
Median % ILS [2, 20]: 66%
Median Day of Death (Dying Mice Only), Treated ([2]; Expt. 2, 150 mg/kg/dose q3h × 8, days 1,5,9, oral, control 9): 15
60-Day Survivors [2, 21]: 1/6
Estimated No. L1210 Cells Surviving Therapy (based on median day of death) [2, 21]: 2 × 10^3
Estimated No. L1210 Cells Surviving Therapy (in parentheses, based on % survivors) [2, 21]: 1.8
Median % ILS [2, 21]: 144%
Median Day of Death (Dying Mice Only), Treated ([2]; Expt. 2, 400 mg/kg/dose q12h × 2, days 1,5,9, i.p., control 9): 22
treated mice dying without gross evidence of progressive leukemia (splenomegaly) ([2]; i.p. treatments reported in Table 2 (1/6 treated mice)): ≤ 16%
toxicity over the dose range tested ([2]; mice treated orally): no toxic levels
activity against leukemia L1210 ([2]; oral route): some therapeutic activity; also recorded: active
60-Day Survivors [2, 22]: 1/6
Estimated No. L1210 Cells Surviving Therapy (based on median day of death) [2, 22]: 5 × 10^2
Estimated No. L1210 Cells Surviving Therapy (in parentheses, based on % survivors) [2, 22]: 1.8
Median % ILS [2, 22]: 155%
Median Day of Death (Dying Mice Only), Treated ([2]; second line of the same regimen: 100 mg/kg/dose q3h × 8, days 1,5,9, i.p., control 9): 23
level of F-AraATP in acid-soluble extracts (HPLC) ([3]; 1 to 6 hours after treatment): 30-50 nmoles/gm cells
level of F-AraATP in acid-soluble extracts (HPLC) ([3]; 9 hours after treatment): none was detected
activity against the virus [4]: demonstrated activity
Virus Rating (VR) [4, 23]: 1.4
Virus Rating (VR) [5]: 0.3
Virus Rating (VR) [6]: 0
Virus Rating (VR) [7]: 0
Virus Rating (VR) [8, 23]: 1.3
activity against the virus ([8]; grown in H.Ep.-2 cells in culture): demonstrated activity
deamination by adenosine deaminase [9]: not a substrate for adenosine deaminase; also recorded: not deaminated; also recorded: completely resistant to deamination
inhibition of DNA synthesis in vivo [10]: pronounced
inhibition of DNA synthesis in vivo [11]: pronounced
% increase in median life span ([12]; 52 mg/kg q3hrsx8): 150%
% increase in median life span ([12]; 80 mg/kg q3hrsx8): 170%
activity against P388 leukemia in mice ([12]; mouse, in vivo): effective; also recorded: active
